Test [1] relates to mouse lung epithelial cells. In words: Apoptosis detection by western blotting (Bax, Bcl-2, cleaved caspase-3, cleaved PARP). The class given is cell-based. The settings on record: SDG pre-treated vs irradiated cells. Here is the method: Apoptosis was determined in mouse lung epithelial cells by levels of Bax (an apoptosis promoter), Bcl-2 (an apoptosis inhibitor), cleaved caspase-3, and cleaved poly (adenosine diphosphate-ribose) polymerase (PARP) seen using immunoblotting. Briefly, cells were lysed in PBS containing protease inhibitors. Immunoblot analysis of cell lysates was then performed using 10 well SDS 12% NuPAGE gel (Invitrogen, Carlsbad Calif.). Electrophoresis was performed at 200V for 1 hour. Transfer to PolyScreen PV transfer membrane (PerkinElmer Life Sciences, Boston, Mass.) was performed for 1 hour at 25 volts. Membrane was blocked overnight in 5% non-fat dry milk in phosphate buffered saline. The non-fat dry milk was then discarded and the membrane was incubated with primary antibody. Protein levels of Bax, Bcl-2, cleaved caspase-3, and cleaved PARP were detected using manufacturer recommended dilutions (Cell Signaling Technology, Danvers, Mass.) using rabbit anti-mouse monoclonal antibody against BAX and Bcl-2, and rabbit anti-mouse cleaved caspase-3 (Asp175), monoclonal antibody and a rabbit polyclonal anti-cleaved PARP (214/215) cleavage site specific antibody. The membrane was washed five times and then incubated in secondary antibody conjugated to horseradish peroxidase for 45 minutes at room temperature. Membranes were developed using Western Lighting Chemiluminescence Reagent Plus (PerkinElmer Life Sciences, Boston, Mass.) and quantified by densitometry scanning of specific bands (20 kDa for Bax, 26 kDa for Bcl-2, 17/19 kDa for cleaved caspase-3, and 89 kDa for cleaved PARP) that were adjusted for loading using β-actin expression level detected by specific secondary antibody (Sigma, St. Louis, Mo.).

In test [2] the test system is Murine primary lung cells (epithelial cells). Briefly: qPCR of Bax and Bcl-2 gene expression after irradiation. Type of test: cell-based, mouse. To be noted: for Bcl-2 mRNA levels, increase: SDG pre-treated cells. Here is the method: qPCR was performed using TaqMan® Probe-Based Gene Expression Assays supplied by Applied Biosystems, Life Technologies (Carlsbad, Calif.). To evaluate the effect of SDG treatment on the mRNA expression of apoptotic genes, individual TaqMan® gene expression assays were performed for Bax (Mm00432051_m1) and Bcl-2 (Mm00477631_m1).
Briefly, cells were pre-treated with SDG (50 μM, 6 hrs) and irradiated (2 Gy). Total RNA was isolated from using RNeasy Plus Mini Kit (Qiagen, Valencia, Calif.) and quantified using a NanoDrop 2000 (ThermoFisher Scientific, Waltham, Mass.). Reverse transcription of RNA to cDNA was then performed on a Veriti® Thermal Cycler using the High Capacity RNA to cDNA kit supplied by Applied Biosystems, Life Technologies (Carlsbad, Calif.). qPCR was performed using 25 ng of cDNA per reaction well on a StepOnePlus™ Real-Time PCR System (Applied Biosystems, Life Technologies, Carlsbad, Calif.). Gene expression data was normalized to 18S ribosomal RNA and calibrated to untreated control samples according to the ΔΔCT method.
For orientation: In qPCR the cycle at which signal appears reflects the starting amount.

The test system of test [3] is human epithelial cells. Briefly: BaP-induced DNA adduct formation. The class given is cell-based. To be noted: given alone or in combination. An excerpt: Similarly, SDG prevents genotoxic stress in human epithelial cells exposed to BaP. Exposure of cells to a potent carcinogen such as BaP, induces genotoxic stress as indicated by increased levels of p53 protein (FIG. 25). […] SDG also prevents oxidative DNA damages in human epithelial cells exposed to BaP. Exposure of cells to a potent carcinogen such as BaP, induces oxidative DNA damage as indicated by increased levels of gamma-H2AX, a marker for double-stranded DNA breaks (FIG. 26). […] Furthermore, SDG prevents DNA adduct formation in human epithelial cells exposed to BaP. Exposure of cells to a potent carcinogen such as BaP, induces the formation of DNA adducts (FIG. 27). DNA adducts are pieces of DNA covalently linked to a carcinogen and is directly linked to the development of malignancy. The DNA adduct levels is decreased by the presence of SDG or its metabolites ED and EL given alone or in combination.

The test system of test [4] is mouse epithelial cells. Briefly: BaP-induced ROS generation (redox-sensitive fluorescence dye). Type of test: cell-based. The settings on record: 10 or 20 μM BaP; 0.1-5 μM SDG; 2 hours. Here is the method: Exposure of murine epithelial cells to the tobacco and environmental carcinogen benzo-alpha-pyrene (BaP) induces damaging reactive oxygen species (ROS) as detected by a redox-sensitive fluorescence dye (FIG. 23). As early as 2 hours, post exposure to the carcinogen, a robust increase of fluorescence intensity indicates ROS generation in cells.

Test [5] relates to murine primary lung epithelial cells. Briefly: Morphological detection of apoptotic cells, epithelial cells. Type of test: cell-based, mouse. The settings on record: SDG 50 μM pre-treatment; irradiated; 24 h; IR alone 13.9%. The protocol: Fibroblasts and endothelial cells were isolated from C57/bl6 mouse. For fibroblast isolation, mouse lungs were harvested, minced, and incubated with dispase (2 mg/ml) for 45 minutes. Pieces were plated out and fibroblasts were cultured as described previously and used between passages 3 and 10. Pulmonary microvascular endothelial cells (PMVEC) were isolated from murine lungs as described previously. Briefly, freshly harvested mouse lungs were treated with collagenase followed by isolation of cells by adherence to magnetic beads coated with mAb to platelet endothelial cell adhesion molecule (PECAM). […]
Apoptotic cells are morphologically characterized by condensation of nucleus and cytoplasm, membrane blebbing, cell shrinkage, and breakdown of nuclear DNA, first in large segments and subsequently in nucleosomal fragments and finally formation of well-enclosed apoptotic bodies. Percentage of cells undergoing apoptosis was determined microscopically from the slides used for micronuclei detection (cytogenetic damage). At least, 500 cells were counted for each experiment (experiment done twice) and percent apoptotic cells were determined as follows: % Cell Death=Na/Nt×100, where Na is the number of cells with apoptotic bodies and Nt is the total number of cells analyzed. Gene Expression Analysis by Quantitative Real Time PCR (qPCR)

`COc1cc(C[C@@H](CO[C@@H]2O[C@H](CO)[C@@H](O)[C@H](O)[C@H]2O)[C@H](CO[C@@H]2O[C@H](CO)[C@@H](O)[C@H](O)[C@H]2O)Cc2ccc(O)c(OC)c2)ccc1O` [SDG, secoisolariciresinol diglucoside]: in test [1], the Bax protein levels result was “trended towards decreased levels” and the Bcl-2 protein levels result is “trended towards decreased levels”. In test [1] (6, 24, 48 hours post-IR), the “Cleaved PARP levels” value is “trended towards decreased levels” and the “Cleaved caspase-3 levels” value is “trended towards decreased levels”. Besides, in test [2] (SDG 50 μM pre-treatment, 2 Gy, 24 and 48 hours post-IR), the “IR-induced increase in pro-apoptotic Bax mRNA levels” value is on record as “significantly (p<0.05) inhibited”. The “Bcl-2 mRNA levels, increase” value in test [2] (24 hours post-IR) was 6.6 fold. Also, the “Bcl-2 mRNA levels, increase” value in test [2] (48 hours post-IR) worked out at 3.5 fold. In addition, in test [3], the DNA adduct levels entry was “decreased”. For the same molecule, in test [4], the ROS entry is reported as “negligible levels”. In test [5], the Apoptotic cells is recorded as 9.9%±1.08.

(Values after patent publication US10966995B2, “Use of secoisolariciresinol diglucosides (SDGS) and related compounds for protection against radiation and chemical damage” (THE TRUSTEES OF THE UNIVERSITY OF PENNSYLVANIA, priority 2014, dated 2021).)
